# Data from US20180117082A1, “ANTIFUNGAL COMPOSITION/TREATMENT” (THE UNIVERSITY OF NOTTINGHAM, priority 2015, published 2018).
# How the values were obtained:
# Zygosaccharomyces bailii = experiment: Growth inhibition assay on solid medium, spotted serial dilutions; format: cell-based; details: same concentrations as in the combinations, each agent alone (FIG. 2A)
# Text: Images were captured after 2 d (YEPD) or 3 d (YNB) growth at 30 C. For growth-inhibition assays on solid medium with R. solani, circular sections of ˜0.5 cm diameter were excised from cultures on PDA and transferred to the centre of fresh plates. Images were captured after 3 d growth at 28 C and the total mycelial area determined using ImageJ and GIMP2 software. Where specified, chemical supplements were included in the solid media.
# Rhizoctonia solani = experiment: Growth inhibition assay on solid medium (PDA agar), mycelial outgrowth; format: cell-based; details: 300 μg ml^−1 paromomycin or 15 mM molybdate alone (FIG. 2B)
# Experimental: For qualitative growth-inhibition assays with yeasts on solid medium, experimental cultures prepared as described above were adjusted to OD600˜2.0, 0.2, 0.02, 0.002, 0.0002 and the dilution series spotted (4 μl) on to either YEPD agar (above) or yeast nitrogen base (YNB) agar: 0.69% (w/v) yeast nitrogen base without amino acids (Formedium; Norfolk, UK) supplemented with 2% (w/v) D-glucose, 0.06 mg ml^−1 leucine, 0.02 mg ml^−1 histidine, 0.02 mg ml^−1 uracil and 2% (w/v) bacteriological agar (Sigma-Aldrich). Images were captured after 2 d (YEPD) or 3 d (YNB) growth at 30 C. For growth-inhibition assays on solid medium with R. solani, circular sections of ˜0.5 cm diameter were excised from cultures on PDA and transferred to the centre of fresh plates. Images were captured after 3 d growth at 28 C and the total mycelial area determined using ImageJ and GIMP2 software. Where specified, chemical supplements were included in the solid media.
# Candida albicans = experiment: Growth inhibition assay in YEPD broth (OD600); format: cell-based; details: 25 μM chromate, 200 μg ml^−1 paromomycin or 10 μg ml^−1 hygromycin, each alone (FIG. 1A)
# Experimental: (§1) Candida spp. or S. cerevisiae were inoculated from YEPD plates to YEPD broth (composition as above, minus agar) and cultured overnight at 30° C., 120 rev min^−1. Overnight cultures were diluted to OD600˜0.5 and cultured for a further 4 h in fresh YEPD before dilution of these experimental cultures to OD600˜0.01 or ˜0.1 in the same medium. Aliquots (300 μl) of the diluted culture plus any chemical supplements (see above), as specified, were transferred to 48-well plates (Greiner Bio-One). OD600 was monitored continuously in a BioTek Powerwave-XS microplate spectrophotometer, with shaking at 30 C. […] Spores of R. solani or Z. tritici were inoculated from PDA plates to potato dextrose broth (PDB; Fluka) (20,000 spores ml^−1). Aliquots (150 μl) of the diluted culture plus any chemical supplements, as specified, were transferred to 96-well plates (Greiner Bio-one) and cultured over 8 d at 24° C., 120 rev min-1. OD600 was monitored every day in a BioTek EL800 microplate spectrophotometer.
# R. solani = experiment: Growth inhibition assay in PDB medium (OD600); details: same concentrations as in the combinations (FIG. 6, FIG. 7)
# Experimental: as §1
Structure (SMILES),"effect on growth, agent alone (Zygosaccharomyces bailii)","growth-inhibitory effect, agent alone (Rhizoctonia solani)","inhibitory effect on growth, agent alone (Candida albicans)","inhibitory effect, agent individually (R. solani)"
NC[C@@H]1O[C@H](O[C@H]2[C@@H](O)[C@H](O[C@@H]3[C@@H](O)[C@H](N)C[C@H](N)[C@H]3O[C@H]3O[C@H](CO)[C@@H](O)[C@H](O)[C@H]3N)O[C@@H]2CO)[C@H](N)[C@@H](O)[C@@H]1O [paromomycin],neither agent alone had a significant effect on growth,neither agent alone had a marked growth-inhibitory effect,no discernible inhibitory effect,
"O=S(=O)(O)c1cc(N=C=S)ccc1C=Cc1ccc(N=C=S)cc1S(=O)(=O)O [DIDS, 4,4′-diisothio-cyanotostilbene-2,2′-disulphonate]",neither agent alone had a significant effect on growth,,,
O=[Se](=O)(O)O [selenate],,,,none of these agents had an inhibitory effect individually
[O]=[Mo](=[O])([O-])[O-] [molybdate],neither agent alone had a significant effect on growth,neither agent alone had a marked growth-inhibitory effect,,
CN(C)C(=S)SSC(=S)N(C)C [thiram],,,,none of these agents had an inhibitory effect individually
[Cu] [copper],,,,none of these agents had an inhibitory effect individually
CCC[C@H](N)C(=O)O [norvaline],,,,none of these agents had an inhibitory effect individually
